Test results taken from ChEMBL document CHEMBL1201862, “PubChem BioAssay data set” (2004).
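Interpolation was linear, between the two tested concentrations surrounding the appropriate level; five concentrations were tested over 48 hours in 96-well plates. Here, GI50 denotes the concentration required for 50% inhibition of growth.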 The source made the active and inactive calls. Cut-off read from the data, not from the text of the source: active = GI50 up to about 1.1 µM and inactive = higher.

Experiments:
Experiment in all cases: NCI-60 cell line screen, 48 h
MDA-MB-435 = tested on: MDA-MB-435
BT-549 = tested on: BT-549
SR = tested on: SR
SK-MEL-2 = tested on: SK-MEL-2
MDA-N = tested on: MDA-N
OVCAR-4 = tested on: OVCAR-4
U-251 = tested on: U-251
NCI/ADR-RES = tested on: NCI/ADR-RES
UACC-62 = tested on: UACC-62
SK-MEL-5 = tested on: SK-MEL-5
TK-10 = tested on: TK-10
SF-268 = tested on: SF-268
HL-60 = tested on: HL-60
NCI-H460 = tested on: NCI-H460
SF-539 = tested on: SF-539
HOP-92 = tested on: HOP-92
CAKI-1 = tested on: CAKI-1
A549 = tested on: A549
UACC-257 = tested on: UACC-257
MDA-MB-231 = tested on: MDA-MB-231
Malme-3M = tested on: Malme-3M
OVCAR-8 = tested on: OVCAR-8
RPMI-8226 = tested on: RPMI-8226
NCI-H226 = tested on: NCI-H226
IGROV-1 = tested on: IGROV-1
A498 = tested on: A498
KM12 = tested on: KM12
UO-31 = tested on: UO-31
SF-295 = tested on: SF-295
NCI-H23 = tested on: NCI-H23
COLO 205 = tested on: COLO 205
MOLT-4 = tested on: MOLT-4
SN12C = tested on: SN12C
PC-3 = tested on: PC-3
HCT-15 = tested on: HCT-15
HT-29 = tested on: HT-29
OVCAR-5 = tested on: OVCAR-5
Hs-578T = tested on: Hs-578T
SNB-19 = tested on: SNB-19
RXF 393 = tested on: RXF 393
ACHN = tested on: ACHN
DU-145 = tested on: DU-145
MCF7 = tested on: MCF7
NCI-H522 = tested on: NCI-H522
HOP-62 = tested on: HOP-62
OVCAR-3 = tested on: OVCAR-3
SK-MEL-28 = tested on: SK-MEL-28
EKVX = tested on: EKVX
HCT-116 = tested on: HCT-116
SW-620 = tested on: SW-620
786-0 = tested on: 786-0
HCC 2998 = tested on: HCC 2998
M14 = tested on: M14
LOX IMVI = tested on: LOX IMVI
K562 = tested on: K562
SNB-75 = tested on: SNB-75
CCRF-CEM = tested on: CCRF-CEM
SK-OV-3 = tested on: SK-OV-3
T47D = tested on: T47D

For `CC(C)OC(=O)C1=C2c3ncccc3C(=O)N2[C@@H](Cl)[C@H](Cl)[C@H]1Cl`, the GI50 (MDA-MB-435) was 81.1 µM (inactive), the GI50 (BT-549) was 36.9 µM (inactive) and the GI50 (SR) was 26.5 µM (inactive). For the same compound, the GI50 (SK-MEL-2) was > 100 µM (inactive), the GI50 (MDA-N) was 50.9 µM (inactive) and the GI50 (OVCAR-4) was > 100 µM (inactive). For the same compound, the GI50 (U-251) was 56.8 µM (inactive), the GI50 (NCI/ADR-RES) was > 100 µM (inactive) and the GI50 (UACC-62) was > 100 µM (inactive). For the same compound, the GI50 (SK-MEL-5) was 83 µM (inactive), the GI50 (TK-10) was > 100 µM (inactive) and the GI50 (SF-268) was 47.9 µM (inactive). The GI50 (HL-60) was 38.2 µM (inactive), the GI50 (NCI-H460) was > 100 µM (inactive) and the GI50 (SF-539) was > 100 µM (inactive). For the same compound, the GI50 (HOP-92) was 46.3 µM (inactive), the GI50 (CAKI-1) was > 100 µM (inactive) and the GI50 (A549) was > 100 µM (inactive). The GI50 (UACC-257) was 34 µM (inactive), the GI50 (MDA-MB-231) was > 100 µM (inactive) and the GI50 (Malme-3M) was 28.8 µM (inactive). For the same compound, the GI50 (OVCAR-8) was 31.7 µM (inactive), the GI50 (RPMI-8226) was 21.8 µM (inactive) and the GI50 (NCI-H226) was > 100 µM (inactive). For the same compound, the GI50 (IGROV-1) was 31.1 µM (inactive), the GI50 (A498) was > 100 µM (inactive) and the GI50 (KM12) was > 100 µM (inactive). For the same compound, the GI50 (UO-31) was > 100 µM (inactive), the GI50 (SF-295) was > 100 µM (inactive) and the GI50 (NCI-H23) was 46.2 µM (inactive). For the same compound, the GI50 (COLO 205) was 44 µM (inactive), the GI50 (MOLT-4) was 22.5 µM (inactive) and the GI50 (SN12C) was 21.8 µM (inactive). For the same compound, the GI50 (PC-3) was 56.6 µM (inactive), the GI50 (HCT-15) was 70.3 µM and the GI50 (HT-29) was > 100 µM (inactive). For the same compound, the GI50 (OVCAR-5) was > 100 µM (inactive), the GI50 (Hs-578T) was > 100 µM (inactive) and the GI50 (SNB-19) was > 100 µM (inactive). For the same compound, the GI50 (RXF 393) was > 100 µM (inactive), the GI50 (ACHN) was > 100 µM (inactive) and the GI50 (DU-145) was > 100 µM (inactive). The GI50 (MCF7) was 39.1 µM (inactive), the GI50 (NCI-H522) was 26.2 µM (inactive) and the GI50 (HOP-62) was > 100 µM (inactive). The GI50 (OVCAR-3) was > 100 µM (inactive), the GI50 (SK-MEL-28) was > 100 µM (inactive) and the GI50 (EKVX) was > 100 µM (inactive). The GI50 (HCT-116) was 50.6 µM (inactive), the GI50 (SW-620) was 34.6 µM (inactive) and the GI50 (786-0) was 55.2 µM (inactive). For the same compound, the GI50 (HCC 2998) was > 100 µM (inactive), the GI50 (M14) was > 100 µM (inactive) and the GI50 (LOX IMVI) was 68.9 µM (inactive). For the same compound, the GI50 (K562) was 30.5 µM (inactive).

In the case of `N#CC12C(=O)NC(=O)C1(C#N)C1C=CC2CC1` (stereo not drawn), the GI50 (MDA-MB-435) is reported as > 100 µM (inactive), the GI50 (BT-549) is reported as > 100 µM (inactive) and the GI50 (SR) is reported as > 100 µM (inactive). The GI50 (MDA-N) was > 100 µM (inactive), the GI50 (OVCAR-4) was > 100 µM (inactive) and the GI50 (U-251) was > 100 µM (inactive). For the same compound, the GI50 (NCI/ADR-RES) was > 100 µM (inactive), the GI50 (SNB-75) was > 100 µM (inactive) and the GI50 (UACC-62) was > 100 µM (inactive). The GI50 (SK-MEL-5) was > 100 µM (inactive), the GI50 (TK-10) was > 100 µM (inactive) and the GI50 (SF-268) was > 100 µM (inactive). The GI50 (HL-60) was > 100 µM (inactive), the GI50 (SF-539) was > 100 µM (inactive) and the GI50 (CAKI-1) was > 100 µM (inactive). For the same compound, the GI50 (A549) was > 100 µM (inactive), the GI50 (UACC-257) was > 100 µM (inactive) and the GI50 (Malme-3M) was > 100 µM (inactive). For the same compound, the GI50 (OVCAR-8) was > 100 µM (inactive), the GI50 (RPMI-8226) was > 100 µM (inactive) and the GI50 (NCI-H226) was > 100 µM (inactive). The GI50 (KM12) was > 100 µM (inactive), the GI50 (UO-31) was > 100 µM (inactive) and the GI50 (SF-295) was > 100 µM (inactive). For the same compound, the GI50 (NCI-H23) was > 100 µM (inactive), the GI50 (COLO 205) was > 100 µM (inactive) and the GI50 (MOLT-4) was > 100 µM (inactive). For the same compound, the GI50 (SN12C) was > 100 µM (inactive), the GI50 (PC-3) was > 100 µM (inactive) and the GI50 (CCRF-CEM) was > 100 µM (inactive). The GI50 (HCT-15) was greater than 100 µM, the GI50 (HT-29) was > 100 µM (inactive) and the GI50 (OVCAR-5) was > 100 µM (inactive). For the same compound, the GI50 (Hs-578T) was > 100 µM (inactive), the GI50 (SNB-19) was > 100 µM (inactive) and the GI50 (RXF 393) was > 100 µM (inactive). The GI50 (ACHN) was > 100 µM (inactive), the GI50 (DU-145) was > 100 µM (inactive) and the GI50 (MCF7) was > 100 µM (inactive). The GI50 (NCI-H522) was > 100 µM (inactive), the GI50 (OVCAR-3) was > 100 µM (inactive) and the GI50 (SK-MEL-28) was > 100 µM (inactive). For the same compound, the GI50 (SK-OV-3) was > 100 µM (inactive), the GI50 (EKVX) was > 100 µM (inactive) and the GI50 (HCT-116) was > 100 µM (inactive). For the same compound, the GI50 (SW-620) was > 100 µM (inactive), the GI50 (786-0) was > 100 µM (inactive) and the GI50 (M14) was > 100 µM (inactive). The GI50 (LOX IMVI) was > 100 µM (inactive) and the GI50 (T47D) was > 100 µM (inactive).

In the case of `CC(C)/C(Cl)=N\OC(=O)Nc1ccc(F)c([N+](=O)[O-])c1`, the GI50 (MDA-MB-435) is reported as 12.3 µM (inactive), the GI50 (BT-549) is reported as 13.4 µM (inactive) and the GI50 (SR) is reported as 5.65 µM (inactive). The GI50 (SK-MEL-2) was 16.2 µM (inactive), the GI50 (MDA-N) was 14 µM (inactive) and the GI50 (OVCAR-4) was 4.07 µM (inactive). The GI50 (U-251) was 16.4 µM (inactive), the GI50 (NCI/ADR-RES) was 18.4 µM (inactive) and the GI50 (SNB-75) was 14.2 µM (inactive). For the same compound, the GI50 (UACC-62) was 17.6 µM (inactive), the GI50 (SK-MEL-5) was 8.43 µM (inactive) and the GI50 (TK-10) was 6.22 µM (inactive). For the same compound, the GI50 (SF-268) was 14.3 µM (inactive), the GI50 (HL-60) was 1.01 µM (active) and the GI50 (NCI-H460) was 2.41 µM (inactive). The GI50 (SF-539) was 3 µM (inactive), the GI50 (HOP-92) was 2.22 µM (inactive) and the GI50 (CAKI-1) was 1.81 µM (inactive). The GI50 (A549) was 23.9 µM (inactive), the GI50 (UACC-257) was 16.1 µM (inactive) and the GI50 (MDA-MB-231) was 12.7 µM (inactive). For the same compound, the GI50 (Malme-3M) was 1.16 µM (inactive), the GI50 (OVCAR-8) was 5.52 µM (inactive) and the GI50 (RPMI-8226) was 2.43 µM (inactive). The GI50 (NCI-H226) was 23.7 µM (inactive), the GI50 (IGROV-1) was 6.53 µM (inactive) and the GI50 (A498) was 19.2 µM (inactive). For the same compound, the GI50 (KM12) was 14.6 µM (inactive), the GI50 (UO-31) was 6.56 µM (inactive) and the GI50 (SF-295) was 19.1 µM (inactive). For the same compound, the GI50 (NCI-H23) was 17.1 µM (inactive), the GI50 (COLO 205) was 2.03 µM (inactive) and the GI50 (MOLT-4) was 1.57 µM (inactive). The GI50 (SN12C) was 5.83 µM (inactive), the GI50 (PC-3) was 18.1 µM (inactive) and the GI50 (CCRF-CEM) was 0.902 µM (active). For the same compound, the GI50 (HCT-15) was 2.59 µM, the GI50 (HT-29) was 15.9 µM (inactive) and the GI50 (OVCAR-5) was 20.6 µM (inactive). The GI50 (Hs-578T) was 12.1 µM (inactive), the GI50 (SNB-19) was 16.7 µM (inactive) and the GI50 (RXF 393) was 18 µM (inactive). The GI50 (ACHN) was 1.79 µM (inactive), the GI50 (DU-145) was 18.2 µM (inactive) and the GI50 (MCF7) was 17.7 µM (inactive). The GI50 (NCI-H522) was 0.792 µM (active), the GI50 (HOP-62) was 17.8 µM (inactive) and the GI50 (OVCAR-3) was 14.2 µM (inactive). For the same compound, the GI50 (SK-MEL-28) was 12.6 µM (inactive), the GI50 (SK-OV-3) was 19.1 µM (inactive) and the GI50 (EKVX) was 11.7 µM (inactive). The GI50 (HCT-116) was 3.08 µM (inactive), the GI50 (SW-620) was 2.35 µM (inactive) and the GI50 (786-0) was 2.78 µM (inactive). For the same compound, the GI50 (HCC 2998) was 10.5 µM (inactive), the GI50 (M14) was 3.88 µM (inactive) and the GI50 (LOX IMVI) was 4.54 µM (inactive). For the same compound, the GI50 (K562) was 2.87 µM (inactive).
